This note sets out measurements from PubChem BioAssay (NCI).

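Test compounds were applied to cells in 96-well plates for 48 hours at 5 doses. Abbreviation: GI50, concentration required for 50% inhibition of growth. TGI marks complete inhibition of growth.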 Where only a bound is given, the exact number is not on record here.

Test systems include SNB-19 CNS; MDA-MB-435; ACHN renal; NCI-H226 lung; HOP-62 NSCLC; SW-620 colon; HOP-92 NSCLC; CCRF-CEM leukemia.
What all share (assay): growth of human tumour cells (NCI), 48 h

Regarding `CC(=O)OC1COC(S[As](C)C)C(OC(C)=O)C1OC(C)=O` (configuration not stated), the GI50 with SNB-19 CNS is 14.7 µM; in the experiment with MDA-MB-435, 0.0643 µM; in the experiment with ACHN renal, 0.195 µM; in the experiment with NCI-H226 lung, 1.47 µM; in the experiment with HOP-62 NSCLC, 2.29 µM; with SW-620 colon it was 0.341 µM. Also, the values for the GI50 in the experiment with HOP-92 NSCLC and with CCRF-CEM leukemia were 0.0332 µM and 0.0444 µM, respectively. Also, the TGI in the experiment with SNB-19 CNS stood at 49.5 µM; in the experiment with MDA-MB-435 it was 0.358 µM; with ACHN renal, 1.52 µM; with NCI-H226 lung, 7.9 µM; in the experiment on HOP-62 NSCLC, 14.9 µM; with SW-620 colon, 1.69 µM. For the same compound, the TGI in the experiment on HOP-92 NSCLC was 0.28 µM; with CCRF-CEM leukemia it was 0.152 µM.
For `CCC[C@H](N[C@@H]1CCc2cc(F)cc(F)c2C1)C(=O)Nc1cn(C(C)(C)CNCC(C)(C)C)cn1`, the GI50 in the experiment with SNB-19 CNS is 26.6 µM; with MDA-MB-435, 17 µM; in the experiment with ACHN renal, 22.7 µM; in the experiment on NCI-H226 lung it was 16.5 µM; in the experiment with HOP-62 NSCLC, 20.8 µM; with SW-620 colon it was 25 µM. Further, the GI50 was 1.47 µM in the experiment with HOP-92 NSCLC and 14.7 µM with CCRF-CEM leukemia. Further, the TGI in the experiment on SNB-19 CNS is more than 94.6 µM; in the experiment with MDA-MB-435, 53.2 µM; in the experiment with ACHN renal, more than 96.7 µM; in the experiment with NCI-H226 lung it was 52.9 µM; in the experiment on HOP-62 NSCLC it was 75.1 µM; with SW-620 colon it was more than 100 µM. The TGI in the experiment on HOP-92 NSCLC is 11.1 µM; in the experiment with CCRF-CEM leukemia it was more than 63.6 µM.
For the compound `CCOC(=O)CC1(O)C=CC(=O)C=C1`, the GI50 in the experiment with SNB-19 CNS is 1.53 µg/mL; with MDA-MB-435 it was 2.35 µg/mL; in the experiment on ACHN renal, 2.43 µg/mL; with NCI-H226 lung, 4.79 µg/mL; in the experiment with HOP-62 NSCLC it was 2.82 µg/mL; in the experiment on SW-620 colon it was 1.68 µg/mL. The GI50 is 3.22 µg/mL with HOP-92 NSCLC and 0.757 µg/mL with CCRF-CEM leukemia. For the same compound, the TGI in the experiment on SNB-19 CNS was 5.05 µg/mL; in the experiment with MDA-MB-435 it was 4.89 µg/mL; with ACHN renal, 4.6 µg/mL; with NCI-H226 lung, 13 µg/mL; in the experiment on HOP-62 NSCLC it was 5.29 µg/mL; in the experiment on SW-620 colon, 4.39 µg/mL. Moreover, the TGI in the experiment on HOP-92 NSCLC turned out to be 5.44 µg/mL; in the experiment with CCRF-CEM leukemia, 7.02 µg/mL.
For `COc1ccc(-c2n[nH]nc2-c2csc3ccccc23)cc1OC`, the GI50 in the experiment with SNB-19 CNS was 4.67 µM; with MDA-MB-435 it was 0.337 µM; in the experiment on ACHN renal, 3.94 µM; in the experiment on NCI-H226 lung it was 13.2 µM; with HOP-62 NSCLC it was 2.18 µM; with SW-620 colon, 3.09 µM. The GI50 is 0.922 µM in the experiment on HOP-92 NSCLC and 3.29 µM in the experiment with CCRF-CEM leukemia. Also, the TGI in the experiment on SNB-19 CNS turned out to be 45.1 µM; with MDA-MB-435, 3.52 µM; with ACHN renal it was 76 µM; in the experiment on NCI-H226 lung it was 74.6 µM; in the experiment on HOP-62 NSCLC, 24.3 µM; in the experiment on SW-620 colon it was 43.9 µM. The TGI in the experiment with HOP-92 NSCLC was 6.69 µM; with CCRF-CEM leukemia, 32.9 µM.
For `O=C(O)C1C2CC3C(OC(=O)C31)C2Br` (configuration not stated), the TGI in the experiment on SNB-19 CNS, with MDA-MB-435, with ACHN renal, with NCI-H226 lung, in the experiment on HOP-62 NSCLC and in the experiment with SW-620 colon was more than 100 µM each time. Further, the TGI in the experiment on HOP-92 NSCLC and in the experiment with CCRF-CEM leukemia was more than 100 µM in each case.
As to `COc1cc(CSc2nc3ccc(C)cc3c(=O)n2Cc2ccccc2)cc(OC)c1OC`, the GI50 was 5.93 µM in the experiment on SNB-19 CNS; 0.337 µM in the experiment with MDA-MB-435; 3.89 µM with ACHN renal; 11.5 µM with NCI-H226 lung; 3.21 µM with HOP-62 NSCLC; 1.56 µM in the experiment on SW-620 colon. Also, the GI50 in the experiment on HOP-92 NSCLC was 1.44 µM; in the experiment on CCRF-CEM leukemia, 2.37 µM. The TGI in the experiment with SNB-19 CNS was more than 100 µM; with MDA-MB-435 it was 2.62 µM; in the experiment on ACHN renal, 55.7 µM; with NCI-H226 lung, 96.1 µM; in the experiment on HOP-62 NSCLC it was 21.4 µM; in the experiment with SW-620 colon, more than 100 µM. For the same compound, the TGI is 7.42 µM in the experiment with HOP-92 NSCLC and more than 100 µM with CCRF-CEM leukemia.
On to `COc1cc(OC)c2c(=O)c(O)c(-c3ccc(OC)c(OC)c3)oc2c1`, for which the TGI is more than 100 µM in the experiment with SNB-19 CNS; more than 31.6 µM in the experiment with MDA-MB-435; more than 100 µM with ACHN renal; more than 100 µM in the experiment on NCI-H226 lung; 19.2 µM with HOP-62 NSCLC; more than 100 µM in the experiment with SW-620 colon. Besides, the TGI in the experiment on HOP-92 NSCLC was 20.7 µM; in the experiment with CCRF-CEM leukemia, more than 100 µM.
As to `CC(C)(C)c1ccc([I+]c2ccc(C(C)(C)C)cc2)cc1`, the GI50 is 1.11 µM in the experiment on SNB-19 CNS; 0.948 µM in the experiment with MDA-MB-435; 3.25 µM in the experiment on ACHN renal; 1.29 µM in the experiment on NCI-H226 lung; 1.83 µM with HOP-62 NSCLC; 1.56 µM with SW-620 colon. Also, the results for the GI50 in the experiment with HOP-92 NSCLC and with CCRF-CEM leukemia were 1.25 µM and 1.17 µM, respectively. Moreover, the TGI in the experiment with SNB-19 CNS turned out to be 3.24 µM; with MDA-MB-435 it was 3.01 µM; with ACHN renal, 12.2 µM; with NCI-H226 lung, 5.32 µM; in the experiment on HOP-62 NSCLC, 3.71 µM; with SW-620 colon, 10.7 µM. The TGI in the experiment with HOP-92 NSCLC came out at 3.5 µM; in the experiment on CCRF-CEM leukemia, 9.14 µM.
